Data from ChEMBL document CHEMBL5303573, “Mapping human microbiome drug metabolism by gut bacteria and their genes” (Nature, 2019).

assay: The drug is tested on Odoribacter splanchnicus strain: fecal isolate for biotransformation. The drug concentrations were measured before and after a 12-h incubation by liquid-chromatography-coupled mass spectrometry (LC–MS); conditions: 2 µM

SMILES | Bacterial Biotransformation
CC(C)(C)N.CCC[C@H](N[C@@H](C)C(=O)N1[C@H](C(=O)O)C[C@@H]2CCCC[C@@H]21)C(=O)OCC [PERINDOPRIL ERBUMINE] | Compound NOT metabolized

assay: The drug is tested on Ruminococcus lactaris strain: ATCC29176 for biotransformation. The drug concentrations were measured before and after a 12-h incubation by liquid-chromatography-coupled mass spectrometry (LC–MS); conditions: 2 µM

SMILES | Bacterial Biotransformation
CC(C)(C)N.CCC[C@H](N[C@@H](C)C(=O)N1[C@H](C(=O)O)C[C@@H]2CCCC[C@@H]21)C(=O)OCC [PERINDOPRIL ERBUMINE] | Compound NOT metabolized

assay: The drug is tested on Bacteroides xylanisolvens strain: DSM18836 for biotransformation. The drug concentrations were measured before and after a 12-h incubation by liquid-chromatography-coupled mass spectrometry (LC–MS); conditions: 2 µM

SMILES | Bacterial Biotransformation
CC(C)(C)N.CCC[C@H](N[C@@H](C)C(=O)N1[C@H](C(=O)O)C[C@@H]2CCCC[C@@H]21)C(=O)OCC [PERINDOPRIL ERBUMINE] | Compound NOT metabolized

conditions: roseburia intestinalis, 12 h, 2 µM
Description: The drug is tested on Roseburia intestinalis strain: L1-82 for biotransformation. The drug concentrations were measured before and after a 12-h incubation by liquid-chromatography-coupled mass spectrometry (LC–MS)

SMILES | Bacterial Biotransformation
CC(C)(C)N.CCC[C@H](N[C@@H](C)C(=O)N1[C@H](C(=O)O)C[C@@H]2CCCC[C@@H]21)C(=O)OCC [PERINDOPRIL ERBUMINE] | Compound NOT metabolized

assay: The drug is tested on Ruminococcus torques strain: ATCC27756 for biotransformation. The drug concentrations were measured before and after a 12-h incubation by liquid-chromatography-coupled mass spectrometry (LC–MS); assay type: ADME; parameters: dose 2 uM, timepoint 0 vs 12 hours; conditions: 2 µM

SMILES | Bacterial Biotransformation
CC(C)(C)N.CCC[C@H](N[C@@H](C)C(=O)N1[C@H](C(=O)O)C[C@@H]2CCCC[C@@H]21)C(=O)OCC [PERINDOPRIL ERBUMINE] | Compound NOT metabolized

assay: The drug is tested on Coprococcus comes strain: ATCC27758 for biotransformation. The drug concentrations were measured before and after a 12-h incubation by liquid-chromatography-coupled mass spectrometry (LC–MS); assay type: ADME; parameters: dose 2 uM, timepoint 0 vs 12 hours; conditions: 2 µM

SMILES | Bacterial Biotransformation
CC(C)(C)N.CCC[C@H](N[C@@H](C)C(=O)N1[C@H](C(=O)O)C[C@@H]2CCCC[C@@H]21)C(=O)OCC [PERINDOPRIL ERBUMINE] | Compound NOT metabolized

assay: The drug is tested on Providencia rettgeri strain: DSM1131 for biotransformation. The drug concentrations were measured before and after a 12-h incubation by liquid-chromatography-coupled mass spectrometry (LC–MS); assay type: ADME; parameters: dose 2 uM, timepoint 0 vs 12 hours; conditions: 2 µM

SMILES | Bacterial Biotransformation
CC(C)(C)N.CCC[C@H](N[C@@H](C)C(=O)N1[C@H](C(=O)O)C[C@@H]2CCCC[C@@H]21)C(=O)OCC [PERINDOPRIL ERBUMINE] | Compound NOT metabolized

assay: The drug is tested on Eubacterium ventriosum strain: ATCC27560 for biotransformation. The drug concentrations were measured before and after a 12-h incubation by liquid-chromatography-coupled mass spectrometry (LC–MS); assay type: ADME; parameters: dose 2 uM, timepoint 0 vs 12 hours; conditions: 2 µM

SMILES | Bacterial Biotransformation
CC(C)(C)N.CCC[C@H](N[C@@H](C)C(=O)N1[C@H](C(=O)O)C[C@@H]2CCCC[C@@H]21)C(=O)OCC [PERINDOPRIL ERBUMINE] | Compound NOT metabolized

assay: The drug is tested on Dorea formicigenerans strain: ATCC27755 for biotransformation. The drug concentrations were measured before and after a 12-h incubation by liquid-chromatography-coupled mass spectrometry (LC–MS); conditions: 2 µM

SMILES | Bacterial Biotransformation
CC(C)(C)N.CCC[C@H](N[C@@H](C)C(=O)N1[C@H](C(=O)O)C[C@@H]2CCCC[C@@H]21)C(=O)OCC [PERINDOPRIL ERBUMINE] | Compound NOT metabolized

assay: The drug is tested on Clostridium sporogenes strain: ATCC15579 for biotransformation. The drug concentrations were measured before and after a 12-h incubation by liquid-chromatography-coupled mass spectrometry (LC–MS); conditions: 2 µM

SMILES | Bacterial Biotransformation
CC(C)(C)N.CCC[C@H](N[C@@H](C)C(=O)N1[C@H](C(=O)O)C[C@@H]2CCCC[C@@H]21)C(=O)OCC [PERINDOPRIL ERBUMINE] | Compound NOT metabolized

assay: The drug is tested on Enterococcus faecalis strain: V583 for biotransformation. The drug concentrations were measured before and after a 12-h incubation by liquid-chromatography-coupled mass spectrometry (LC–MS); conditions: 2 µM

SMILES | Bacterial Biotransformation
CC(C)(C)N.CCC[C@H](N[C@@H](C)C(=O)N1[C@H](C(=O)O)C[C@@H]2CCCC[C@@H]21)C(=O)OCC [PERINDOPRIL ERBUMINE] | Compound NOT metabolized

assay: The drug is tested on Bifidobacterium ruminantium strain: fecal isolate for biotransformation. The drug concentrations were measured before and after a 12-h incubation by liquid-chromatography-coupled mass spectrometry (LC–MS); conditions: 2 µM

SMILES | Bacterial Biotransformation
CC(C)(C)N.CCC[C@H](N[C@@H](C)C(=O)N1[C@H](C(=O)O)C[C@@H]2CCCC[C@@H]21)C(=O)OCC [PERINDOPRIL ERBUMINE] | Compound NOT metabolized

conditions: akkermansia muciniphila, 12 h, 2 µM
Description: The drug is tested on Akkermansia muciniphila strain: ATCC BAA-835 for biotransformation. The drug concentrations were measured before and after a 12-h incubation by liquid-chromatography-coupled mass spectrometry (LC–MS)

SMILES | Bacterial Biotransformation
CC(C)(C)N.CCC[C@H](N[C@@H](C)C(=O)N1[C@H](C(=O)O)C[C@@H]2CCCC[C@@H]21)C(=O)OCC [PERINDOPRIL ERBUMINE] | Compound NOT metabolized

assay: The drug is tested on Alistipes indistinctus strain: DSM22520 for biotransformation. The drug concentrations were measured before and after a 12-h incubation by liquid-chromatography-coupled mass spectrometry (LC–MS); conditions: 2 µM

SMILES | Bacterial Biotransformation
CC(C)(C)N.CCC[C@H](N[C@@H](C)C(=O)N1[C@H](C(=O)O)C[C@@H]2CCCC[C@@H]21)C(=O)OCC [PERINDOPRIL ERBUMINE] | Compound NOT metabolized

assay: The drug is tested on Bacteroides uniformis strain: ATCC8492 for biotransformation. The drug concentrations were measured before and after a 12-h incubation by liquid-chromatography-coupled mass spectrometry (LC–MS); conditions: 2 µM

SMILES | Bacterial Biotransformation
CC(C)(C)N.CCC[C@H](N[C@@H](C)C(=O)N1[C@H](C(=O)O)C[C@@H]2CCCC[C@@H]21)C(=O)OCC [PERINDOPRIL ERBUMINE] | Compound NOT metabolized

assay: The drug is tested on Bacteroides vulgatus strain: ATCC8482 for biotransformation. The drug concentrations were measured before and after a 12-h incubation by liquid-chromatography-coupled mass spectrometry (LC–MS); conditions: phocaeicola vulgatus, 2 µM

SMILES | Bacterial Biotransformation
CC(C)(C)N.CCC[C@H](N[C@@H](C)C(=O)N1[C@H](C(=O)O)C[C@@H]2CCCC[C@@H]21)C(=O)OCC [PERINDOPRIL ERBUMINE] | Compound NOT metabolized

conditions: anaerostipes sp., 12 h, 2 µM
Description: The drug is tested on Anaerostipes sp. strain: fecal isolate for biotransformation. The drug concentrations were measured before and after a 12-h incubation by liquid-chromatography-coupled mass spectrometry (LC–MS)

SMILES | Bacterial Biotransformation
CC(C)(C)N.CCC[C@H](N[C@@H](C)C(=O)N1[C@H](C(=O)O)C[C@@H]2CCCC[C@@H]21)C(=O)OCC [PERINDOPRIL ERBUMINE] | Compound NOT metabolized

assay: The drug is tested on Blautia hansenii strain: DSM20583 for biotransformation. The drug concentrations were measured before and after a 12-h incubation by liquid-chromatography-coupled mass spectrometry (LC–MS); conditions: 2 µM

SMILES | Bacterial Biotransformation
CC(C)(C)N.CCC[C@H](N[C@@H](C)C(=O)N1[C@H](C(=O)O)C[C@@H]2CCCC[C@@H]21)C(=O)OCC [PERINDOPRIL ERBUMINE] | Compound NOT metabolized
